Reference: PMC7614683, “A small molecule PI3Kα activator for cardioprotection and neuroregeneration” (Nature, 2023)

Columns and labels:
Assay in all cases: SelectScreen LanthaScreen Binding
Conditions in all cases: 1000 nM
ULK2 = biological target: T1, ULK2 (Homo sapiens, UniProt Q8IYT8)
T1 sequence (Q8IYT8 1-1036): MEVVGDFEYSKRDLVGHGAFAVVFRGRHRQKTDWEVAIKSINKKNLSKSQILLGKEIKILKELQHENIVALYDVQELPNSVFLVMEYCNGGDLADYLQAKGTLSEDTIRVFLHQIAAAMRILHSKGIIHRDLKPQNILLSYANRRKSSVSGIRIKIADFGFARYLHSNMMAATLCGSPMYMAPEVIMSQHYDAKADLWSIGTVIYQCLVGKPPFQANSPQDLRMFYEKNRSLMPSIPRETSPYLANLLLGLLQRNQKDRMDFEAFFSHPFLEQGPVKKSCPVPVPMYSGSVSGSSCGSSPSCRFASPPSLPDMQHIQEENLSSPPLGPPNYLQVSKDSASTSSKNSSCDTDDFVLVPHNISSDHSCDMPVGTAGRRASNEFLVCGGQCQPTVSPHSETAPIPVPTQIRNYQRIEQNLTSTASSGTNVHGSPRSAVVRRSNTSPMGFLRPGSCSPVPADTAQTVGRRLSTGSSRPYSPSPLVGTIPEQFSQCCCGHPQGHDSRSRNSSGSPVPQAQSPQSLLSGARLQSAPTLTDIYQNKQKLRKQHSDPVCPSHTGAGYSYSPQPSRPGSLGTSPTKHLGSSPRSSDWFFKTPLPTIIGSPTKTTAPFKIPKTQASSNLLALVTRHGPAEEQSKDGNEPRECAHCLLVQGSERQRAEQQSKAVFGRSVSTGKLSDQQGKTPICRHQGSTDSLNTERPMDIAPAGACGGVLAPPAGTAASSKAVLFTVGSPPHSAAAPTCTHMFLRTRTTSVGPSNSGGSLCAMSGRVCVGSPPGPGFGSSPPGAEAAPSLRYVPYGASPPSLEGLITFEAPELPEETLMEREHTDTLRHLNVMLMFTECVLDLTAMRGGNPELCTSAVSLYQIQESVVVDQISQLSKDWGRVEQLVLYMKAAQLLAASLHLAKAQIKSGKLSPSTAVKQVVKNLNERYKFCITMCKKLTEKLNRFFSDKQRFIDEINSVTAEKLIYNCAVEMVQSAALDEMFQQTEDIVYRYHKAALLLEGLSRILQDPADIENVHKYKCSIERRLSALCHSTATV
Summary of the method: (§1)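 Kinases in the SelectScreen panel (Adapta, LanthaScreen binding, Z-LYTE formats) were tested against compound at 1 μM. Separately, ATM (100 nM, 5 μM GST-p53, 1 mM ATP, 30 min, 30°C) and mTORC1 (50 nM, 15 μM 4E-BP1, 250 μM ATP, 3 h) were run with 200 μM compound. Those products were read on Phos-tag gels.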

MAP4K1 (HPK1) = MAP4K1 (HPK1) (Homo sapiens, UniProt Q92918)
Summary of the method: as §1

CDK8/cyclin C = CDK8/cyclin C (Homo sapiens, UniProt P49336)
Summary of the method: as §1

DMPK = biological target: T2, DMPK (Homo sapiens, UniProt Q09013)
T2 sequence (Q09013 1-629): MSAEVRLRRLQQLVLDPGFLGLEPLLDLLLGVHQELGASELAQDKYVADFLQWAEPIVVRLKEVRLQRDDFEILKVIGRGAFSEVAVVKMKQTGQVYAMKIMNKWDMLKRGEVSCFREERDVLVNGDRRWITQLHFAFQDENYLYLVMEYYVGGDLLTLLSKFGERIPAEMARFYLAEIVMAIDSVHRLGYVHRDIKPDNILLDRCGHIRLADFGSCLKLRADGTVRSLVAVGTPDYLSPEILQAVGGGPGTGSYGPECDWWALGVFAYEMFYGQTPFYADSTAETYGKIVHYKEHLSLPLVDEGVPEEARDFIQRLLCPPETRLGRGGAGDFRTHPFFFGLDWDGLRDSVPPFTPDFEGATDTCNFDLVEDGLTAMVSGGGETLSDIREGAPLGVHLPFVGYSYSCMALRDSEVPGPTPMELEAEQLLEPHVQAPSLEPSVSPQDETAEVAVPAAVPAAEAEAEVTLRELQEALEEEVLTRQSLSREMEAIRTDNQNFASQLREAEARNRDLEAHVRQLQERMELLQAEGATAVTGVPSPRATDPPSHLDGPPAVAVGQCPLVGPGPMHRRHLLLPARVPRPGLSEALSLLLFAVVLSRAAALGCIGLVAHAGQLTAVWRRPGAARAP
Summary of the method: as §1

Chain of MAP4K1 (HPK1) (Q92918 whole entry): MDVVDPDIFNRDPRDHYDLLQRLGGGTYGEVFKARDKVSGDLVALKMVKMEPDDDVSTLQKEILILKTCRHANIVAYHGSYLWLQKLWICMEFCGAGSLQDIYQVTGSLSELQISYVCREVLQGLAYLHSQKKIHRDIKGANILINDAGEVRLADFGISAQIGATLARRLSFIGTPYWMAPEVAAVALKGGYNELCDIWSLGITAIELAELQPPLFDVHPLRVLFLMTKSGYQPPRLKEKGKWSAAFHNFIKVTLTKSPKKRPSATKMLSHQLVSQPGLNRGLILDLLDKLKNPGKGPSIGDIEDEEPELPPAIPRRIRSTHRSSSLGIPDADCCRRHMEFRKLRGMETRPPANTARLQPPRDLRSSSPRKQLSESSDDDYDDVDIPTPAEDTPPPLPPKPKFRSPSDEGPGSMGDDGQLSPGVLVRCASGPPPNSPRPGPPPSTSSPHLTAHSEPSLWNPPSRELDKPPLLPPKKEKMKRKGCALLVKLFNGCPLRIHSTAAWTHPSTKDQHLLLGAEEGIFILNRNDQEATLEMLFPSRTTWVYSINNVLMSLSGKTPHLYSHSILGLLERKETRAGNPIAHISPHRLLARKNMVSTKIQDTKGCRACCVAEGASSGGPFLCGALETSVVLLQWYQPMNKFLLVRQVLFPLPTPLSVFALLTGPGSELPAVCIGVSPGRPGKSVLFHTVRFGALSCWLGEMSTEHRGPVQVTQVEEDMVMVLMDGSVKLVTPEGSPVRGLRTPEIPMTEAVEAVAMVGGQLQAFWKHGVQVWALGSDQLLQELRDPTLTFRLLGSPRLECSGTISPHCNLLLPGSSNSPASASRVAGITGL
Chain of CDK8/cyclin C (P49336 whole entry): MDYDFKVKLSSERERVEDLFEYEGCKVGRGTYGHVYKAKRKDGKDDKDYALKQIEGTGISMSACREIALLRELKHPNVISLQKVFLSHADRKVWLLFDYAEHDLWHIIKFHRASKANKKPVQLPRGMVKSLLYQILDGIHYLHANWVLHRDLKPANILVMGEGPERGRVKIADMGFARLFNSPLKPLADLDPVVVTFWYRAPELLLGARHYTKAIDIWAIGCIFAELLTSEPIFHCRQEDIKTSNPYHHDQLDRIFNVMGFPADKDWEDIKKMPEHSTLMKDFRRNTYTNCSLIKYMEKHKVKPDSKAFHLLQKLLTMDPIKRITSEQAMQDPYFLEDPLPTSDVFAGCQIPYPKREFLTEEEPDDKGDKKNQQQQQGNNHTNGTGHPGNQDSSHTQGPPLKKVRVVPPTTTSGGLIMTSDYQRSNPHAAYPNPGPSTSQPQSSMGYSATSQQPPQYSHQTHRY
Chain of CDK8/cyclin C (P24863 whole entry partner): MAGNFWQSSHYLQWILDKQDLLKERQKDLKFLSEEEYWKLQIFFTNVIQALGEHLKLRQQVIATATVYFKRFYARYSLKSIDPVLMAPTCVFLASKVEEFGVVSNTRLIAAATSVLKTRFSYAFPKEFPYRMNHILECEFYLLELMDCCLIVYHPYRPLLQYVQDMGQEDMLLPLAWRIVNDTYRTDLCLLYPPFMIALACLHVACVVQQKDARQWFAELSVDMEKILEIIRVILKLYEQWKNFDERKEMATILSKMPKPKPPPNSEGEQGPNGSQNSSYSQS

SMILES: CCN1CCN(c2ccc(Nc3cc(Nc4cccc5c4N(C(C)=O)CC5)ccn3)cc2)CC1 [Compound 1938]
- % Displacement Point 1 (ULK2): 3%
- % Displacement Point 2 (ULK2): -0.488%
- % Displacement mean (ULK2): 1.23%
- % Displacement Point 1 (MAP4K1 (HPK1)): -3.25%
- % Displacement Point 2 (MAP4K1 (HPK1)): 6.64%
- % Displacement mean (MAP4K1 (HPK1)): 1.7%
- % Displacement Point 1 (CDK8/cyclin C): -0.599%
- % Displacement Point 2 (CDK8/cyclin C): 0.85%
- % Displacement mean (CDK8/cyclin C): 0.126%
- % Displacement Point 1 (DMPK): 4.22%
- % Displacement Point 2 (DMPK): 0.782%
- % Displacement mean (DMPK): 2.5%
